From patent US9371295B2, “Compounds for use in the treatment of disorders that are ameliorated by inhibition of HDAC” (IRBM—Science Park S.p.A., priority 2012, dated 2016) come the findings set out here.

The target in one assay is T1, HDAC1 (Homo sapiens, UniProt Q13547).
T1 construct: made in house
Kind of assay: HDAC1 assay (Fluor-de-Lys fluorescent deacetylase assay). It counts as biochemical. Particulars: read-out: hHDAC IC50. As to the method:
The HDAC1 assay is used to quantify the histone deacetylase (HDAC) activity. The assay is performed in 384 well microtiter plates by pre-incubating serial dilutions of the compounds with a fixed concentration of HeLa nuclear extract or purified HDAC1 and then adding an acetylated lysine-containing substrate/developer that fluoresces upon deacetylation.
Reagents of the HDAC Fluorescent Activity Assay are purchased from BioMol Research Laboratories (Plymouth Meeting, Pa.) and feature the Fluor-de-Lys™ Substrate/Developer System.
TSA Stock: TSA is provided as a 10 mM stock solution in 100% dimethylsulfoxide (DMSO). […] The final concentration in the assay is 20 uM.
3 uM [final] TSA to this solution increases its ability to stop the reaction.
HDAC1 Working Solution: The HDAC1 enzyme is diluted in assay buffer prior to each use from a fresh aliquot of enzyme. The final concentration in the assay is 1-2 nM.
Compounds: Test compounds are directly transferred from a 100% DMSO solution into assay plates by spotting nanoliters of solutions by an acoustic dispenser (ATS-100, EDC biosystems, US).
HeLa cells transiently transfected with pCDNA3-HDAC1-FLAG are grown to 80% confluence on 10 cm culture dishes in DMEM, 10% Fetal bovine serum supplemented with antibiotics and glutamine. Cells are washed with 10 ml cold PBS and scraped into 2 ml of PBS. Cells are centrifuged for 5 minutes at 800×g at 4° C., washed with 30 ml PBS and resuspended in 10 ml PBS, counted, re-centrifuged and frozen at −80° C.
The frozen cell pellet is re-suspended in 1 ml of hypotonic lysis buffer (LB: 20 mM Hepes pH7.9, 0.25 mM EDTA, 10% glycerol) containing COMPLETE protease inhibitor and incubated on ice for 15 minutes, followed by homogenization on a 2-ml DounceB homogenizer (25 strokes). 150 mM KCl and 0.5% NP-40 are added to the homogenate and the solution is sonicated twice for 30 seconds (output5/6, duty cycle 90) and incubated for 1 hour at 4° C. After a 30 minutes centrifugation at 12000 rpm and 4° C. the supernatant (soluble extract) is collected and protein concentration is determined using the BIORAD assay.
Anti-FLAG M2 affinity resin (Sigma) is washed three times with TBS and twice with LB. 10 μl of the LB-washed resin/mg of protein (2-3 ug of Flagged-HDAC1) are added to the soluble extract (1 mL) and incubated overnight at 4° C. with gentle mixing. The resin is then collected by centrifugation, washed once with LB, twice with LB+0.1% NP40 and twice with elution buffer (50 mM Hepes pH 7.4, 5% glycerol, 100 mM KCl, 0.01% Triton X-100).
The concentration of purified HDAC is determined by Western blot analysis.

The subject of another assay is HDAC in Hela cells. Put plainly: HDAC Hela Cell Based assay.
Assay [1] relates to human γ-globin promoter (EGFP reporter) in K562 cells. Put plainly: HbF activation assay on K562 (EGFP/RFP reporter model system for screening of inducers of fetal hemoglobin). Format: cell-based. Particulars: 60 hours. The text has this:
In order to test several compounds, a model system was produced based on previous findings present in the literature. The K562 erythroid-like cell lines, isolated and characterized by Lozzio & Lozzio (Blood, 45(3), pp 321-334) from a patient with chronic myelogenous leukemia in blast crisis, have been extensively employed as a useful in vitro model to study the molecular mechanism(s) regulating the expression of embryonic and fetal human globin genes, as well as for screening of new differentiation-inducing compounds. A stable cell line where reporter genes encoding green EGFP and far-red fluorescent protein red-FP are placed under the control of the human γ-globin or β-globin promoters respectively was used (see Vadolas et al, Hum. Mol. Genet. 2004, 13, 2, 223-233 for details). The modified 3-cluster also contains the upstream regulatory region called LCR. This cell line grows in suspension at 37° C. and 5% CO2 in humidified atmosphere in the following medium: DMEM, 10% foetal bovine serum, glutamine and antibiotics (penicillin and streptomycin);
The assay procedures is as follows: • Single concentration compounds or serially diluted samples are transferred to an empty assay plates by a spotter (ATS-100, EDC Biosystems, USA) in order to have a final concentration of DMSO of 0.25% in 50 μL of cell culture. Source plats contains compounds dissolved in 100% DMSO • Black, transparent bottom, 384 wells, tissue culture treated plates are used as assay plates. • Assay plates containing spotted compounds are filled with a suspension of cell in the described assay medium. The final cell concentration is of 1000 cells per well. • Cells are incubated in humidified atmosphere, 37° C.-5% CO2, for 60 hours • Cell nuclei are stained by adding 10 ul (6 μM; 1 μM final) Hoechst 33342 (Life Technologies, USA) • The cell associated intensity is read by a plate based cytometer (ACUMEN explorer, TTP Labtech, UK) • The nuclei count is used to assess the cell proliferation/death and to normalize the total EGFP/RFP intensity. HbF Activation Assay in Human Cell Line K562
The compounds of the invention were tested in the HbF activation assay on K562, as model system for screening of potential inducers of fetal hemoglobin.

The structures appear in SMILES notation.

T1 sequence (Q13547 whole entry): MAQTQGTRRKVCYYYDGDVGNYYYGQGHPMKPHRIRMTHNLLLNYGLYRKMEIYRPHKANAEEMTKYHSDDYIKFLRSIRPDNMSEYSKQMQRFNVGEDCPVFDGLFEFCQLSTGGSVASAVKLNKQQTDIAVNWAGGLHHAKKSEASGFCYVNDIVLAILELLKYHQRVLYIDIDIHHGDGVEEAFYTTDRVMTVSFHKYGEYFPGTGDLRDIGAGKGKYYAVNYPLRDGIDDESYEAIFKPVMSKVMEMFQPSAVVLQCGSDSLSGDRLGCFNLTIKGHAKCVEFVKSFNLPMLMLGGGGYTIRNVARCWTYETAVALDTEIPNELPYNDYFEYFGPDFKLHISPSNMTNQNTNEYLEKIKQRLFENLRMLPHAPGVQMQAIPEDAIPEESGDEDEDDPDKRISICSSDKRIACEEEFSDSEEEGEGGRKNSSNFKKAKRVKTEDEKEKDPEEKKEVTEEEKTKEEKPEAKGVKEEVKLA

What is called IC50 is the concentration that gives 50% inhibition. Usually EC50 stands for the concentration at which the effect is half-maximal. A high value points to a less potent agent. Consider `CCC(=O)CCCCC[C@H](NC(=O)C(C)(C)N(C)C)c1ncc(-c2cc3ccccc3nc2OC)o1` [Compound 35, (S)-2-(dimethylamino)-N-(1-(5-(2-methoxyquinolin-3-yl)oxazol-2-yl)-7-oxononyl)-2-methylpropanamide], for which the IC50 on HDAC1 and in the assay on HDAC in Hela cells was less than 100 nM throughout. Moreover, the EC50 in assay [1] was 100 to 1000 nM.
On to `CCC(=O)CCCCC[C@H](NC(=O)C(=O)N(C)C)c1ncc(-c2cc3ccccc3nc2OC)o1` [Compound 36, (S)-N1-(1-(5-(2-methoxyquinolin-3-yl)oxazol-2-yl)-7-oxononyl)-N2,N2-dimethyloxalamide], for which the IC50 at HDAC1 and in the assay with HDAC in Hela cells was 100 to 1000 nM throughout. In assay [1], this molecule yielded an EC50 greater than 1000 nM.
Take `CCC(=O)CCCCC[C@H](NC(=O)CCN(C)C)c1ncc(-c2cc3ccccc3nc2OC)o1` [Compound 38, (S)-3-(dimethylamino)-N-(1-(5-(2-methoxyquinolin-3-yl)oxazol-2-yl)-7-oxononyl)propanamide]: the IC50 at HDAC1 and in the assay with HDAC in Hela cells was less than 100 nM each time. Moreover, in assay [1], the EC50 lay within 100 to 1000 nM.
For the molecule `CCC(=O)CCCCC[C@H](NC(=O)C1CCN(C)CC1)c1ncc(-c2cc3ccccc3nc2OC)o1` [Compound 39], the IC50 on HDAC1 and in the assay with HDAC in Hela cells was less than 100 nM each time. Also, the EC50 in assay [1] was in the range of 100 to 1000 nM.
For `CCC(=O)CCCCC[C@H](NC(=O)c1cncs1)c1ncc(-c2cc3ccccc3nc2OC)o1` [Compound 40, (S)-N-(1-(5-(2-methoxyquinolin-3-yl)oxazol-2-yl)-7-oxononyl)thiazole-5-carboxamide], the IC50 at HDAC1 and in the assay with HDAC in Hela cells was less than 100 nM each time. Moreover, the EC50 in assay [1] was greater than 1000 nM.
As for `CCC(=O)CCCCC[C@H](NC(=O)C(=O)N(C)C)c1nnc(-c2cc3ccccc3nc2OC)o1` [Compound 45, (S)-N1-(1-(5-(2-methoxyquinolin-3-yl)-1,3,4-oxadiazol-2-yl)-7-oxononyl)-N2,N2-dimethyloxalamide], the IC50 is less than 100 nM on HDAC1 and 100 to 1000 nM in the assay with HDAC in Hela cells. In assay [1], this molecule had an EC50 greater than 1000 nM.
On to `CCC(=O)CCCCC[C@H](NC(=O)C(=O)N1CCN(C)CC1)c1nnc(-c2cc3ccccc3nc2OC)o1` [Compound 46, (S)-N-(1-(5-(2-methoxyquinolin-3-yl)-1,3,4-oxadiazol-2-yl)-7-oxononyl)-2-(4-methylpiperazin-1-yl)-2-oxoacetamide], for which the values for the IC50 on HDAC1 and with HDAC in Hela cells were less than 100 nM and 100 to 1000 nM, respectively. The EC50 in assay [1] is greater than 1000 nM.
For `CCC(=O)CCCCC[C@H](NC(=O)C1CCN(C)CC1)c1nnc(-c2cc3ccccc3nc2OC)o1` [Compound 47, (S)-N-(1-(5-(2-methoxyquinolin-3-yl)-1,3,4-oxadiazol-2-yl)-7-oxononyl)-1-methylpiperidine-4-carboxamide], in that order: less than 100 nM, 100 to 1000 nM and 100 to 1000 nM.
For `CCC(=O)CCCCC[C@H](NC(=O)Cc1c(C)[nH]c2ccc(OC)cc12)c1nnc(-c2cc3ccccc3nc2OC)o1` [Compound 48, (S)-2-(5-methoxy-2-methyl-1H-indol-3-yl)-N-(1-(5-(2-methoxyquinolin-3-yl)-1,3,4-oxadiazol-2-yl)-7-oxononyl)acetamide] the same measures were less than 100 nM, less than 100 nM and greater than 1000 nM.
For `CCC(=O)CCCCC[C@H](NC(=O)CCn1c(CC)nc2ccccc21)c1nnc(-c2cc3ccccc3nc2OC)o1` [Compound 50, (S)-3-(2-ethyl-1H-benzo[d]imidazol-1-yl)-N-(1-(5-(2-methoxyquinolin-3-yl)-1,3,4-oxadiazol-2-yl)-7-oxononyl)propanamide], in that order: less than 100 nM, 100 to 1000 nM and 100 to 1000 nM.
On to `CCC(=O)CCCCC[C@H](NC(=O)CCN(C)C)c1nnc(-c2cc3ccccc3nc2OC)o1` [Compound 51, (S)-3-(dimethylamino)-N-(1-(5-(2-methoxyquinolin-3-yl)-1,3,4-oxadiazol-2-yl)-7-oxononyl)propanamide], for which the half-maximal inhibitory concentration (IC50) at HDAC1 is less than 100 nM; in the assay on HDAC in Hela cells, 100 to 1000 nM. The EC50 in assay [1] was greater than 1000 nM.
For `CCC(=O)CCCCC[C@H](NC(=O)C1CN(C)C1)c1ncc(-c2ccc(-c3ccn[nH]3)cc2)o1` [Compound 53, (S)-N-(1-(5-(4-(1H-pyrazol-5-yl)phenyl)oxazol-2-yl)-7-oxononyl)-1-methylazetidine-3-carboxamide] the same measures were less than 100 nM, 100 to 1000 nM and greater than 1000 nM.
`CCC(=O)CCCCC[C@H](NC(=O)C1CN(C)C1)c1ncc(-c2ccc(-c3ccnn3C)cc2)o1` [Compound 54, (S)-1-methyl-N-(1-(5-(4-(1-methyl-1H-pyrazol-5-yl)phenyl)oxazol-2-yl)-7-oxononyl)azetidine-3-carboxamide]: the IC50 at HDAC1 is less than 100 nM; with HDAC in Hela cells, 100 to 1000 nM. This molecule registered an EC50 in assay [1] greater than 1000 nM.
As to `CCC(=O)CCCCC[C@H](NC(=O)C1CN(C(C)=O)C1)c1ncc(-c2cc3ccccc3nc2OC)o1` [Compound 55, (S)-1-acetyl-N-(1-(5-(2-methoxyquinolin-3-yl)oxazol-2-yl)-7-oxononyl)azetidine-3-carboxamide], the IC50 at HDAC1 was less than 100 nM; in the assay with HDAC in Hela cells, 100 to 1000 nM. In assay [1], this molecule displayed an EC50 greater than 1000 nM.
For `CCC(=O)CCCCC[C@H](NC(=O)C1CN(Cc2ccccc2)C1)c1ncc(-c2cc3ccccc3nc2OC)o1` [Compound 56, (S)-1-benzyl-N-(1-(5-(2-methoxyquinolin-3-yl)oxazol-2-yl)-7-oxononyl)azetidine-3-carboxamide], in that order: less than 100 nM, 100 to 1000 nM and greater than 1000 nM.
For `CCC(=O)CCCCC[C@H](NC(=O)C1CNC1)c1ncc(-c2cc3ccccc3nc2OC)o1` [Compound 57, (S)-N-(1-(5-(2-methoxyquinolin-3-yl)oxazol-2-yl)-7-oxononyl)azetidine-3-carboxamide] the same measures were less than 100 nM, 100 to 1000 nM and greater than 1000 nM.
For `CCC(=O)CCCCC[C@H](NC(=O)[C@@H]1CC(F)(F)CN1C)c1ncc(-c2cc3ccccc3nc2OC)o1` [Compound 58, (S)-4,4-difluoro-N-((S)-1-(5-(2-methoxyquinolin-3-yl)oxazol-2-yl)-7-oxononyl)-1-methylpyrrolidine-2-carboxamide] the same measures were less than 100 nM, 100 to 1000 nM and greater than 1000 nM.
For the molecule `CCC(=O)CCCCC[C@H](NC(=O)Cn1ccnn1)c1ncc(-c2cc3ccccc3nc2OC)o1` [Compound 59, (S)-N-(1-(5-(2-methoxyquinolin-3-yl)oxazol-2-yl)-7-oxononyl)-2-(1H-1,2,3-triazol-1-yl)acetamide], the figures for the IC50 at HDAC1 and in the assay with HDAC in Hela cells were less than 100 nM and 100 to 1000 nM, respectively. In assay [1], this molecule came in with an EC50 greater than 1000 nM.
